# Data from paper PMC8486139, “A new phenothiazine derivate is active against Clostridioides difficile and shows low cytotoxicity” (PLoS ONE, 2021).
# Read-outs that look alike come from different tables or passages of the source.
# Key:
# C. difficile = details: previously shown; cited from earlier work
# [1] = test system: gastrointestinal microbiota; details: mice
# MRSA = details: cited from earlier work
# [2] = test system: Methicillin resistant Staphylococcus aureus (MRSA); details: cited from earlier work
# C. difficile ATCC 43255 [3] = assay: Minimal inhibition concentration (MIC) in 96-well microtitre plates; type: cell-based, Clostridioides difficile; details: C. difficile ATCC 43255, 24 h anaerobic incubation
# Text: C. difficile ATCC 43255, previously isolated from an abdominal wound, was used to assess the anti-clostridioides activity of JBC 1847. The strain was stored in reinforced clostridial medium (Oxoid, Roskilde, Denmark) in 15% glycerol at -[…] until use and grown anaerobically on ChromID® C. difficile plates (bioMérieux, Ballerup, Denmark).
# fecal bacterial count = assay: Four-day oral treatment: CFU per gram feces by 16S rRNA qPCR; type: in vivo; details: mice; for average CFU/g fecal sample after treatment: four days
# Caco-2 cell monolayers [4] = test system: Caco-2 cell monolayers
# Caco-2 cell monolayers [5] = assay: MTS/PMS cell proliferation (metabolic activity) assay; type: cell-based
# Procedure: The cell proliferation assay (MTS/PMS; [3-(4,5-dimethylthiazol-2-yl)-5-(3-carboxymethoxyphenyl)-2-(4-sulfophenyl)-2H-tetrazolium, inner salt; MTS] and an electron coupling reagent (phenazine methosulfate) PMS) assay was performed by incubating the Caco-2 cell monolayers with 400 μL of a PMS/MTS solution in the apical compartment and 500 μL supplemented HBSS in the basolateral chamber (according to manufacturer’s instructions) for 60 minutes at 37°C and circular rotation (50 rpm). After incubation, 2×100 μL samples were taken from each monolayer and the absorbance at 492 nm in a 96-well plate.
# Caco-2 cell monolayers [6] = assay: LDH release assay; type: cell-based
# Procedure: For analysis of the LDH activity, the samples taken from the apical compartment after the exposure experiment were diluted 5-fold and analyzed in the LDH assay according to manufacturer’s instructions. Briefly, the assay consisted of mixing the diluted samples with different assay reagents followed by incubation at room temperature for 30 min and the absorbance at 492 nm as a measure for LDH activity. A lysate of Caco-2 monolayers (prepared by suspending Caco-2 cell monolayers in purified water) was included as a positive control for maximal response in the assay.
# C. difficile ATCC 43255 [7] = assay: Minimum bactericidal concentration (MBC), plating from MIC wells; details: C. difficile ATCC 43255, ≥3 log reduction of inoculum
# Procedure: Minimum bactericidal concentration (MIC) values were defined as the lowest concentrations of test compounds causing ≥3 log reductions of the initial cell inocula (∼ 10^5 CFU/mL in the final assay). Briefly, 100 μl from each well of the MIC assay (after incubation) were plates on ChromID® plates. After incubation for 24 h, viable counts were enumerated on ChromID® plates. Both the MIC and MBC were conducted with three biological replicates.
smiles,measurement,setting,value
CSc1ccc2c(c1)N(CCC1CCCCN1C)c1ccccc1S2 (stereo not shown) [Thioridazine],antimicrobial activity against C. difficile,C. difficile,antimicrobial activity
CC(C)=CCCC(C)CC[N+](C)(C)CCCN1c2ccccc2Sc2ccccc21 (stereo not shown) [JBC 1847],tendency in Lactobacillus spp abundance,[1]; especially small intestine (Fig 5),concentration-depended increase
same,consistency of the fecal material,[1]; exposure trial,No changes
same,bacterial load of MRSA in wound model,MRSA,highly effective in decreasing the bacterial load
same,"MIC against MRSA compared to the mother compound, promazine",[2],lower the minimal inhibition concentration (MIC) remarkably
same,MIC,C. difficile ATCC 43255 [3],4 µg/mL
same,average CFU/g fecal sample after treatment,fecal bacterial count; 20 mg/kg bw,4.4 ×10^9 CFU/g
same,average CFU/g fecal sample after treatment,fecal bacterial count; 100 mg/kg bw,6.8 × 10^9 CFU/g
same,change in CFU/g fecal sample after treatment,fecal bacterial count; p = 0.51,no significant changes
same,effect on TEER,Caco-2 cell monolayers [4]; concentrations up to seven times MIC,did not affect the TEER negatively
same,cytotoxicity in Caco-2 cell-line assays,Caco-2 cell monolayers [4]; concentrations up to seven times the minimal bactericidal concentration,indication of toxicity was not observed
same,MTS/PMS response vs buffer controls,Caco-2 cell monolayers [5]; 29 μg/mL,not significantly reduced
same,MTS/PMS response (metabolic activity) vs buffer control,Caco-2 cell monolayers [5]; 58.1 μg/mL (100 μM),statistically significant reduction
same,LDH release compared to buffer control,Caco-2 cell monolayers [6]; 29 μg/mL (50 μM),significantly higher
same,LDH release compared to buffer control,"Caco-2 cell monolayers [6]; 29 μg/mL (50 μM), listed as JBC1 8473",statistically significant increase
same,LDH release compared to buffer control,Caco-2 cell monolayers [6]; 58.1 μg/ml in Fig 3,significantly higher
same,LDH release compared to buffer control,"Caco-2 cell monolayers [6]; 58.1 μg/ml in Fig 3, listed as JBC1 8473",statistically significant increase
same,MBC,C. difficile ATCC 43255 [7],4 µg/mL
same,dose tolerated without any clinical signs of discomfort,"NMRI female mice; mice, oral",up to 100 mg/kg bw
same,clinical score of discomfort,"NMRI female mice; mouse, in vivo, 25 mg/kg",1
same,clinical score of discomfort,"NMRI female mice; mouse, in vivo, 100 mg/kg",0
same,tolerance of two doses,"NMRI female mice; mouse, in vivo, po, 100 mg/kg",tolerated well
